Laboratory results published in ChEMBL document CHEMBL5634089, “Design, synthesis and evaluation of 2-pyrimidinylindole derivatives as anti-obesity agents by regulating lipid metabolism” (Eur J Med Chem, 2023).
Values after ≈ are worked out from the molar mass of the structure shown. Active and inactive are the calls of the source. The rule behind the calls is not given here.

Assays:
Mus musculus [1] = assay: Inhibition of lipid synthesis in high-fat and high-cholesterol diet induced C57BL/6J mouse assessed as downregulation of ACLY protein expression at 20 mg/kg, ip administered for 6 weeks by Western blotting analysis; format: functional, organism-based
Mus musculus [2] = assay: Inhibition of lipid synthesis in high-fat and high-cholesterol diet induced C57BL/6J mouse assessed as downregulation of FABP4 protein expression at 20 mg/kg, ip administered for 6 weeks by Western blotting analysis; format: functional, organism-based
Mus musculus [3] = assay: Anti-obesity activity in high-fat and high-cholesterol diet induced C57BL/6J mouse assessed as reduction in LDL-c level at 20 mg/kg, ip administered every day for 6 weeks; format: functional, organism-based
Mus musculus [4] = assay: Anti-obesity activity in high-fat and high-cholesterol diet induced C57BL/6J mouse assessed as attenuation of inflammation in liver at 20 mg/kg, ip administered everyday for 6 weeks by hematoxylin and eosin staining based microscopic analysis; format: functional, organism-based
Mus musculus [5] = assay: Inhibition of lipid synthesis in high-fat and high-cholesterol diet induced C57BL/6J mouse assessed as downregulation of FASN protein expression at 20 mg/kg, ip administered for 6 weeks by Western blotting analysis; format: functional, organism-based
[6] = Tmax in Sprague-Dawley rat at 20 mg/kg, po administered for 24 hrs by LC-MS/MS analysis; format: ADME, organism-based; conditions: in vivo
[7] = Half life in Sprague-Dawley rat at 2 mg/kg, iv administered for 24 hrs by LC-MS/MS analysis; format: ADME, organism-based; conditions: in vivo
[8] = MRT (0 to t) in Sprague-Dawley rat at 20 mg/kg, po administered for 24 hrs by LC-MS/MS analysis; format: ADME, organism-based; conditions: in vivo
3T3-L1 [9] = assay: Anti-adipogenic activity against mouse 3T3-L1 cells assessed as decrease in C/EBP alpha mRNA expression at 0.2 to 0.8 uM incubated for 3 days by RT-PCR analysis; format: functional, cell-based; conditions: dose 0.2-0.8 µM, time 3.0 day
3T3-L1 [10] = assay: Anti-adipogenic activity against mouse 3T3-L1 cells assessed as decrease in Fasn mRNA expression at 0.2 to 0.8 uM incubated for 3 days by RT-PCR analysis; format: functional, cell-based; conditions: dose 0.2-0.8 µM, time 3.0 day
[11] = AUC (0 to infinity) in Sprague-Dawley rat at 20 mg/kg, po administered for 24 hrs by LC-MS/MS analysis; format: ADME, organism-based; conditions: in vivo
3T3-L1 [12] = assay: Anti-adipogenic activity against mouse 3T3-L1 cells assessed as decrease in Acc mRNA expression at 0.2 to 0.8 uM incubated for 3 days by RT-PCR analysis; format: functional, cell-based; conditions: dose 0.2-0.8 µM, time 3.0 day
Adipocyte = assay: Anti-adipogenic activity against mouse […] Adipocytes assessed as lipid-lowering activity by Oil Red O staining based microplate reader analysis; format: functional, cell-based
3T3-L1 [13] = assay: Anti-adipogenic activity in mouse 3T3-L1 cells assessed as lipid-lowering activity at 1 uM measured after 9 days by Oil Red O staining based microplate reader analysis relative to control; format: functional; conditions: time 9 day
3T3-L1 [14] = assay: Anti-adipogenic activity against mouse 3T3-L1 cells assessed as decrease in PPAR gamma mRNA expression at 0.2 to 0.8 uM incubated for 3 days by RT-PCR analysis; format: functional, cell-based; conditions: dose 0.2-0.8 µM, time 3.0 day
Mus musculus [15] = assay: Anti-obesity activity in high-fat and high-cholesterol diet induced C57BL/6J mouse assessed as attenuation of insulin resistance at 20 mg/kg, ip measured after 5 weeks by ITT analysis; format: functional, organism-based
[16] = Aqueous solubility of compound incubated for 24 hrs by HPLC analysis; format: physicochemical; conditions: aqueous medium
[17] = Apparent volume of distribution during terminal phase in Sprague-Dawley rat at 2 mg/kg, iv administered for 24 hrs by LC-MS/MS analysis; format: ADME, organism-based; conditions: in vivo
3T3-L1 [18] = assay: Anti-adipogenic activity against mouse 3T3-L1 cells assessed as increase in Mcad mRNA expression at 0.2 to 0.8 uM incubated for 3 days by RT-PCR analysis; format: functional, cell-based; conditions: dose 0.2-0.8 µM, time 3.0 day
3T3-L1 [19] = assay: Anti-adipogenic activity in mouse 3T3-L1 cells assessed as lipid-lowering activity during the adipogenesis stage at 0.2 to 1.0 uM measured after 0 to 3 days; format: functional, cell-based; conditions: dose 0.2-1 µM, time 0-3 day
[20] = AUC (0 to t) in Sprague-Dawley rat at 20 mg/kg, po administered for 24 hrs by LC-MS/MS analysis; format: ADME, organism-based; conditions: in vivo
[21] = Half life in Sprague-Dawley rat at 20 mg/kg, po administered for 24 hrs by LC-MS/MS analysis; format: ADME, organism-based; conditions: in vivo
Mus musculus [22] = assay: Inhibition of lipid synthesis in high-fat and high-cholesterol diet induced C57BL/6J mouse assessed as downregulation of ACC protein expression at 20 mg/kg, ip administered for 6 weeks by Western blotting analysis; format: functional, organism-based
[23] = Cmax in Sprague-Dawley rat at 20 mg/kg, po administered for 24 hrs by LC-MS/MS analysis; format: ADME, organism-based; conditions: in vivo
Mus musculus [24] = assay: Anti-obesity activity in high-fat and high-cholesterol diet induced C57BL/6J mouse assessed as reduction in liver damage by measuring reduction in LDH level in serum at 20 mg/kg, ip administered every day for 6 weeks; format: functional, organism-based
Mus musculus [25] = assay: Anti-obesity activity in high-fat and high-cholesterol diet induced C57BL/6J mouse assessed as reduction in liver damage by measuring reduction in cholinesterase level in serum at 20 mg/kg, ip administered every day for 6 weeks; format: functional, organism-based
[26] = Oral bioavailability (0 to infinity) in Sprague-Dawley rat at 20 mg/kg administered for 24 hrs by LC-MS/MS analysis; format: ADME, organism-based; conditions: in vivo
Mus musculus [27] = assay: Anti-obesity activity in high-fat and high-cholesterol diet induced C57BL/6J mouse assessed as reduction in triglyceride level at 20 mg/kg, ip administered every day for 6 weeks; format: functional, organism-based
3T3-L1 [28] = assay: Anti-adipogenic activity against mouse 3T3-L1 cells assessed as decrease in Elovl6 mRNA expression at 0.2 to 0.8 uM incubated for 3 days by RT-PCR analysis; format: functional, cell-based; conditions: dose 0.2-0.8 µM, time 3.0 day
Mus musculus [29] = assay: Anti-obesity activity in high-fat and high-cholesterol diet induced C57BL/6J mouse assessed as improvement in glucose tolerance at 20 mg/kg, ip measured after 3 weeks by GTT analysis; format: functional, organism-based
3T3-L1 [30] = assay: Anti-adipogenic activity against mouse 3T3-L1 cells assessed as change in phosphorylated AMPK alpha level; format: functional, cell-based
[31] = Apparent oral clearance in Sprague-Dawley rat at 20 mg/kg, po administered for 24 hrs by LC-MS/MS analysis; format: ADME, organism-based; conditions: in vivo
Mus musculus [32] = assay: Anti-obesity activity in high-fat and high-cholesterol diet induced C57BL/6J mouse assessed as attenuation of hepatocyte ballooning at 20 mg/kg, ip administered every day for 6 weeks by […] staining based microscopic analysis; format: functional, organism-based
[33] = AUC (0 to t) in Sprague-Dawley rat at 2 mg/kg, iv administered for 24 hrs by LC-MS/MS analysis; format: ADME, organism-based; conditions: in vivo
3T3-L1 [34] = assay: Anti-adipogenic activity against mouse 3T3-L1 cells assessed as decrease in Scd1 mRNA expression at 0.2 to 0.8 uM incubated for 3 days by RT-PCR analysis; format: functional, cell-based; conditions: dose 0.2-0.8 µM, time 3.0 day
Mus musculus [35] = assay: Anti-obesity activity in high-fat and high-cholesterol diet induced C57BL/6J mouse assessed as reduction in total cholesterol level at 20 mg/kg, ip administered every day for 6 weeks; format: functional, organism-based
[36] = Cytotoxicity against mouse 3T3-L1 cells assessed as reduction in cell viability incubated for 24 hrs by Sulforhodamine B assay; format: toxicity, cell-based
Mus musculus [37] = assay: Anti-obesity activity in high-fat and high-cholesterol diet induced C57BL/6J mouse assessed as reduction in fat mass at 20 mg/kg, ip administered every day for 6 weeks; format: functional, organism-based

Which inhibition (Mus musculus [1]) does the source give for CC(=O)c1c(-c2nccc(NCCN3CCCC3)n2)[nH]c2ccccc12 here?
The inhibition was “Active”.

What about the inhibition (Mus musculus [2]) of the same compound?
The inhibition was “Active”.

And the Activity (Mus musculus [3])?
The Activity was “Active”.

What about the Activity (Mus musculus [4]) of the same compound?
The Activity was “Active”.

And the inhibition (Mus musculus [5])?
The inhibition was “Active”.

What about the Tmax [6] of the same compound?
The Tmax was 2.8 h.

What about the half-life [7] of the same compound?
Its half-life is 114 min.

And the MRT last at 24 h [8]?
Its MRT last at 24 h is 5.2 h.

And the Activity (3T3-L1 [9])?
The Activity was “Active”.

And the Activity (3T3-L1 [10])?
The Activity was “Active”.

And the AUC(0-inf) [11]?
Its AUC(0-inf) is 1470 ng·h/mL.

What about the Activity (3T3-L1 [12]) of the same compound?
The Activity was “Active”.

And the EC50 (Adipocyte)?
The EC50 was 289 nM.

What about the Activity (3T3-L1 [13]) of the same compound?
The Activity was 100.7%.

And the Activity (3T3-L1 [14])?
Its Activity is “Active”.

And the Activity (Mus musculus [15])?
Its Activity is “Active”.

And the solubility at 24 h [16]?
Its solubility at 24 h is 161 µg/mL (≈ 461 µM).

And the Vz/F [17]?
Its Vz/F is 24.4 L/kg.

What about the Activity (3T3-L1 [18]) of the same compound?
Its Activity is “Active”.

And the Activity (3T3-L1 [19])?
Its Activity is “Active”.

What about the AUC(0-t) at 24 h [20] of the same compound?
Its AUC(0-t) at 24 h is 1380 ng·h/mL.

And the half-life [21]?
Its half-life is 174 min.

What about the inhibition (Mus musculus [22]) of the same compound?
The inhibition was “Active”.

What about the Cmax [23] of the same compound?
The Cmax was 168 ng/mL.

What about the Activity (Mus musculus [24]) of the same compound?
The Activity was “Active”.

And the Activity (Mus musculus [25])?
The Activity was “Active”.

What about the bioavailability [26] of the same compound?
The bioavailability was 65.5%.

And the Activity (Mus musculus [27])?
Its Activity is “Active”.

What about the Activity (3T3-L1 [28]) of the same compound?
The Activity was “Active”.

What about the Activity (Mus musculus [29]) of the same compound?
Its Activity is “Active”.

What about the Activity (3T3-L1 [30]) of the same compound?
Its Activity is “inactive”.

What about the CL/F [31] of the same compound?
The CL/F was 255 mL/min/kg.

What about the Activity (Mus musculus [32]) of the same compound?
The Activity was “Active”.

And the AUC(0-t) at 24 h [33]?
The AUC(0-t) at 24 h was 219 ng·h/mL.

What about the Activity (3T3-L1 [34]) of the same compound?
The Activity was “Active”.

What about the Activity (Mus musculus [35]) of the same compound?
Its Activity is “Active”.

And the IC50 at 24 h [36]?
Its IC50 at 24 h is 27 µM.

What about the Activity (Mus musculus [37]) of the same compound?
Its Activity is “Active”.
